Key:
[1] = system: mouse embryonic teratocarcinoma F9 cells; assay: Differentiation of mouse embryonic teratocarcinoma F9 cells (plasminogen activator secretion); type: cell-based; conditions: concentration producing half of the maximum amount of plasminogen activator secreted
Source text: Their activities may also be measured in tests of cell transactivation using pretransfected recombinant RAR or RXR receptors (B. A. Bernard et al, Biochemical and Biophysical Research Communication, vol. 186, 977-983 (1992); M. F. Boehm et al, Journal of Medicinal Chemistry, 37, 408-414 (1994)).
This differentiation was characterized by the secretion of the plasminogen activator into the culture medium. The activity of the compound is expressed by the AC50 value, which represents the concentration of test compound which produces half of the maximum amount of plasminogen activator secreted.

RARα = biological target: T1, RARα (Homo sapiens, UniProt P10276); assay: RAR Transactivation, RARα (HeLa cells cotransfected with human RAR expression vector and TREpp-tk-CAT reporter); type: cell-based; conditions: concentration eliciting 50% of the maximum CAT activity
T1 construct: expressed in transfected cells
T1 sequence (P10276 1-462): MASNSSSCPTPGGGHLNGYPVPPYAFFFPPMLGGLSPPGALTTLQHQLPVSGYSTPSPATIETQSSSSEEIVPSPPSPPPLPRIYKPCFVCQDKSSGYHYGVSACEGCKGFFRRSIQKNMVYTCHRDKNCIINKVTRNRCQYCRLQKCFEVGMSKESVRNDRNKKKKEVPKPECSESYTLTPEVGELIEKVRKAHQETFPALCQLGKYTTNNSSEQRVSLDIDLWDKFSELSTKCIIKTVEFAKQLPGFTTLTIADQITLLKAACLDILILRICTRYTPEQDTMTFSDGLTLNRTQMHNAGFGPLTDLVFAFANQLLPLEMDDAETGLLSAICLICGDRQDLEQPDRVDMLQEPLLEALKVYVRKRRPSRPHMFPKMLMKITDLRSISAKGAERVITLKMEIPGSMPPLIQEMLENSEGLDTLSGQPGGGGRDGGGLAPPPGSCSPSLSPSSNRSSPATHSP
Method: (§1) (b) This test was carried out as described in the publication: Bernard B. A., Bernardon J. M., Delescluse C., Martin C., Lenoir M. C., Maignan J., Carpentier B., Pilgrim W. R., Reichert U. and Shroot B., Biochem. Biophys. […] HeLa cells were cotransfected with expression vectors coding for human RARs and the reporter plasmid TREpp-tk-CAT. The value given represents the concentration of test compound which elicited 50% of the maximum CAT activity.

RARγ = biological target: T2, RARγ (Homo sapiens, UniProt P13631); assay: RAR Transactivation, RARγ (HeLa cells cotransfected with human RAR expression vector and TREpp-tk-CAT reporter); type: cell-based; conditions: concentration eliciting 50% of the maximum CAT activity
T2 construct: expressed in transfected cells; host or cells: HeLa
T2 sequence (P13631 1-454): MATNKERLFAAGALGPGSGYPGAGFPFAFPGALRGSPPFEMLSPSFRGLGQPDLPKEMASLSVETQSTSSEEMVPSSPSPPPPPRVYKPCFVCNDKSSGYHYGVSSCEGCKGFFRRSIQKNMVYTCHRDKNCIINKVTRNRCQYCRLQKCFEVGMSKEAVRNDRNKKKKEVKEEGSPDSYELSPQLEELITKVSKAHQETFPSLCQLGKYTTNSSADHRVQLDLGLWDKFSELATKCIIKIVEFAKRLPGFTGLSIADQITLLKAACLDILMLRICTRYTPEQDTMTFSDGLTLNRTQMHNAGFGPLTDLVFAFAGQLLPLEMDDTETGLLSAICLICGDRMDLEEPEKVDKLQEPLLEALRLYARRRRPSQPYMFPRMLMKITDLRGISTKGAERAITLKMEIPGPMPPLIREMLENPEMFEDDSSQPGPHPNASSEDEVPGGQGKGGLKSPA
Method: as §1

RARβ [2] = biological target: T3, RARβ (Homo sapiens, UniProt P10826); assay: RAR Transactivation, RARβ (HeLa cells cotransfected with human RAR expression vector and TREpp-tk-CAT reporter); type: cell-based; set-up: expressed in transfected cells; conditions: concentration eliciting 50% of the maximum CAT activity
T3 sequence (P10826 1-448 isoform P10826-2): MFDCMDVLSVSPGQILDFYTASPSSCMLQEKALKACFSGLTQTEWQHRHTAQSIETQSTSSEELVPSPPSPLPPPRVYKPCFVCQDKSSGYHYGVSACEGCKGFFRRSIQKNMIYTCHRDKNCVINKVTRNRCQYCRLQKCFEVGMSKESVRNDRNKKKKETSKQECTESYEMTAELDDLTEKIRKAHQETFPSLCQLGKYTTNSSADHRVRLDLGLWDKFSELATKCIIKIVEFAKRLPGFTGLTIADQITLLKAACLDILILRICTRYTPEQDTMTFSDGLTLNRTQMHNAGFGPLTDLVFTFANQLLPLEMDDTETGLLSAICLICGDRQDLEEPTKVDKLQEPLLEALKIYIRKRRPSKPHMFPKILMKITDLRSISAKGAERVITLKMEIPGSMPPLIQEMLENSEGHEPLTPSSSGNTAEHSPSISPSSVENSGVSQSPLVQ
Method: as §1

RARβ [3] = biological target: T3, RARβ; assay: RAR binding, RARβ (competition binding, nuclear extracts of transfected cos-7 cells); set-up: expressed in transfected cells; host or cells: COS-7 (nuclear extracts); conditions: recombinant human receptors, cos-7 nuclear extracts; competition with [H^3]-4-(5,6,7,8-tetrahydro-5,5,8,8-tetramethyl-2-anthracenyl benzoic acid)
Method: (c) The binding test was carried out on recombinant human receptors produced by the transfection of cos-7 cells with expression vectors coding for the RAR receptor subtypes.

Q: For `O=C(O)c1ccc2c(c1)OCC(c1ccc(O)c(C34CC5CC(CC(C5)C3)C4)c1)=C2` [Example 13, 3-[(3-(1-adamantyl)-4-hydroxphenyl)-2H-1-benzopyran]-7-carboxylic acid], which AC50 [1] is on record?
A: Its AC50 is 107 nM.

Q: What about the AC50 (RARα) of the same compound?
A: Its AC50 is 47 nM.

Q: What about the AC50 (RARγ) of the same compound?
A: The AC50 was 6 nM.

Q: And the AC50 (RARβ [2])?
A: Its AC50 is 20 nM.

Q: And the Kd (RARβ [3])?
A: The Kd was 3300 nM.

Q: For `CC1(C)CCC(C)(C)c2cc(C3=Cc4ccc(C(=O)O)cc4OC3)ccc21` [Example 2, 3-[(5,6,7,8-tetrahydro-5,5,8,8-tetramethyl-2-naphthyl)-2-H-1-benzopyran]-7-carboxylic acid], which AC50 [1] is on record?
A: Its AC50 is 58 nM.

Q: What about the AC50 (RARα) of the same compound?
A: Its AC50 is 22 nM.

Q: What about the AC50 (RARγ) of the same compound?
A: The AC50 was 15 nM.

Q: What about the AC50 (RARβ [2]) of the same compound?
A: The AC50 was 2 nM.

Q: How did the AC50 [1] turn out when `CC(C)(C)c1cc(C2=Cc3ccc(C(=O)O)cc3OC2)cc(C(C)(C)C)c1O` [Example 11, 3-[(3,5-di-tert-butyl-4-hydroxyphenyl)-2-H-1-benzopyran]-7-carboxylic acid] was run?
A: The AC50 was 320 nM.

Q: What about the AC50 (RARγ) of the same compound?
A: Its AC50 is 157 nM.

Q: And the AC50 (RARβ [2])?
A: Its AC50 is 77 nM.

Q: What about the Kd (RARβ [3]) of the same compound?
A: Its Kd is 3680 nM.

Q: Which AC50 (RARα) does the source give for `COc1ccc(C2=Cc3ccc(C(=O)O)cc3OC2)cc1C12CC3CC(CC(C3)C1)C2` [Example 1, 3-[(3-(1-adamantyl)-4-methoxyphenyl)-2H-1-benzopyran]-7-carboxylic acid] here?
A: The AC50 was 8 nM.

Q: What about the AC50 (RARγ) of the same compound?
A: The AC50 was 4 nM.

Q: And the AC50 (RARβ [2])?
A: Its AC50 is 2 nM.
